From PMC7461568, “Novel Cyclic Lipopeptide Antibiotics: Effects of Acyl Chain Length and Position” (International Journal of Molecular Sciences, 2020)
In brackets after ≈: the same amount, converted by molar mass. Where a SMILES comes first, the peptide text is derived from it. [ ]: non-standard residue; d: D form. The star is where a group is joined. 2Nal = N[C@@H](Cc1ccc2ccccc2c1)C(=O)O; Octanoyl = CCCCCCCC(=O)*; Dab = NCC[C@H](N)C(=O)O; AEEA = NCCOCCOCC(=O)O

What was measured:
P. aeruginosa ATCC 27853 [1] = test system: P. aeruginosa ATCC 27853
Protocol: The MIC constitutes a limited measure for antimicrobial activity. It indicates whether or not AMPs in different concentrations are able to prevent visible growth of bacteria.
Time-kill experiments were performed on balanced exponentially growing cultures of P. aeruginosa ATCC 27853. We used balanced cultures as described in Oddo et al.. Briefly, overnight cultures were prepared in MHB-II broth at 37 °C with shaking. Overnight cultures were back-diluted and grown exponentially for no less than 8–10 generations before experimentation. When experiments were done, exponentially growing cultures were back-diluted to an OD600 = 0.0005 approximately 5 × 10^5 CFU, into fresh MHB-II heated to 37 °C. Samples (250 μL) were taken at time points 0, 1, 3, 5, and 24 h. Samples were spun down at 8000× g for 5 min and washed in 1 mL of NaCl 0.9% before being spun down again and re-suspended in 250 μL NaCl 0.9%. From this, 10-fold dilution series were prepared and 10 μL samples were spot-plated in triplicate onto LB-agar. From the undiluted sample, 100 μL samples were also plated, i.e., giving a detection limit of 10 CFU/mL.

P. aeruginosa ATCC 27853 [2] = format: cell-based, Pseudomonas aeruginosa; details: MHB-II, inoculum 5 × 10^5 CFU/mL, 37 °C, 18–24 h, visual read-out, triplicate
Protocol: In the original report on S3(B), MIC experiments were carried out by using non-cation-adjusted MHB-I media. To this, bovine serum albumin (BSA) and acetic acid were added. The rationale for choosing a medium without cations is that cation-adjusted media (MHB-II) in some cases causes substantial inhibition of the activity of cationic peptides. Furthermore, some peptides are at risk of precipitation when diluted into MHB medium, which can be avoided via the addition of BSA and acetic acid. However, the use of MHB-II is favorable to imitate the in vivo conditions as much as possible. Both media were tested with and without the addition of BSA and acetic acid by trial and error. […]
Cation-adjusted Mueller-Hinton broth (MHB-II) media (BD BBLTM Beef extract powder, BD BactoTMCasamino acids, and DIFCO soluble starch was from Becton, Dickinson and Company©, Franklin Lakes, NJ, USA). […] A VersaMaxTM Tunable Microplate Reader (Molecular Devices LLC, Sunnyvale, CA, USA) was used and the data were evaluated on a Softmax® Pro (Molecular Devices LLC).
The MIC experiments were performed according to a protocol adapted from Wiegand et al., with minor modifications. The MICs were determined in triplicate. […] The MIC values were visually evaluated, and the MIC was set to the lowest concentration […] based on triplicate measurements. […]

With `CCCCCCCC(=O)NCC[C@@H]1NC(=O)[C@H](CCN)NC(=O)[C@H](CCCNC(=N)N)NC(=O)[C@H](Cc2ccc3ccccc3c2)NC(=O)[C@H](CCN)NC(=O)[C@H](CC(N)=O)NC(=O)[C@H](CCN)NC(=O)[C@H](Cc2ccc3ccccc3c2)NC(=O)COCCOCCNC1=O` [(C8)^5] (cyclo([Dab][2Nal]R[Dab][Dab](Octanoyl)[AEEA][2Nal][Dab]N)) the “bacterial cell count over the first 5 h” value (P. aeruginosa ATCC 27853 [1]; 1 × MIC (8 μg/mL), 0–5 h, MHB-II, 37 °C) was “did not change”, the “log reduction of cell count within first hour of treatment” value (P. aeruginosa ATCC 27853 [1]; 5 × MIC ((C8)^5 40 μg/mL; colistin 2.5 μg/mL), 1 h, MHB-II, 37 °C, shaking, n = 3) was 4.5 log and the “cell count / growth after 24 h” value (P. aeruginosa ATCC 27853 [1]; 5 × MIC ((C8)^5 40 μg/mL; colistin 2.5 μg/mL), 24 h, detection limit 10 CFU/mL) was 10^4 CFU/mL. The “killing of the bacteria in the original inoculum” value (P. aeruginosa ATCC 27853 [1]; ATCC 27853, 1 h, 40 μg/mL) was greater than 99.9% and the “Minimum inhibitory concentration, PA” value (P. aeruginosa ATCC 27853 [2]) was 8 µg/mL (≈ 5.99 µM).
